Several values for one entry are separate records, joined by “and”; a condition that tells them apart may be missing. Identical values can stand only once.
Tests used:
[1] = tested on: pool of barcoded P. falciparum lines (Dd2 and 3D7 backgrounds); experiment: Resistome growth assay, pool of 51 barcoded lines; type: cell-based, Plasmodium falciparum; conditions: 3 x IC50 constant
Description: The resistome growth assay employs a parasite pool consisting of 51 barcoded lines including both Dd2 and 3D7 genetic backgrounds, with wild-type lines for both (S3 Table). Most lines used were derived from in vitro resistance selection experiments, with others having been CRISPR edited. All lines were barcoded via CRISPR editing of a 101bp barcode cassette into the non-essential pfpare locus (PF3D7_0709700). Parasites were cultured in RPMI-1640 medium supplemented with HEPES (5.94 g/L), NaHCO3 (2.1 g/L), glutamax (1×), hypoxanthine (50 mg/L), gentamycin ([…]), and AlbumaxII (5 g/L) at a […]. Parasite growth was monitored over 14 days by flow cytometry (Cytoflex, Beckman Coulter) by staining with 1× SYBR Green and 0.2 μM MitoTracker Deep Red. Parasitemia adjustments were made to maintain a healthy range of <5% parasitemia. Parasite cultures were harvested at day 14 and lysed by saponin (0.05%), with pellets washed twice with PBS. Barcodes were PCR amplified using 5 μL of parasite pellet and sequenced by Illumina amplicon sequencing.

P. falciparum NF10^NF = tested on: P. falciparum NF10^NF; set-up: method as in ref 1 Veiga et al. 2016; conditions: means ± SEM, N 6; ref 1 Veiga et al. 2016; read-out: IC50 NF10NF; cited from earlier work
P. falciparum Dd2^H97Y = tested on: P. falciparum Dd2^H97Y; set-up: key: S: sensitive; R: resistant; conditions: ref [19],[20],[51]; cited from earlier work
P. falciparum 7G8^C350R = tested on: P. falciparum 7G8^C350R; set-up: key to Phenotype, 7G8^C350R: S: sensitive; R: resistant; conditions: cited from earlier work
P. falciparum Dd2^3D7 = tested on: P. falciparum Dd2^3D7; set-up: key: S: sensitive; R: resistant; conditions: ref [19],[20],[51]; cited from earlier work
P. falciparum Dd2^M343L = tested on: P. falciparum Dd2^M343L; set-up: key to Phenotype, Dd2^M343L: S: sensitive; R: resistant; conditions: cited from earlier work
P. falciparum 7G8^F145I = tested on: P. falciparum 7G8^F145I; set-up: key to Phenotype, 7G8^F145I: S: sensitive; R: resistant; conditions: cited from earlier work
P. falciparum Dd2^I218F = tested on: P. falciparum Dd2^I218F; set-up: key to Phenotype, Dd2^I218F: S: sensitive; R: resistant; conditions: cited from earlier work
P. falciparum Dd2^G353V = tested on: P. falciparum Dd2^G353V; set-up: key to Phenotype, Dd2^G353V: S: sensitive; R: resistant; conditions: cited from earlier work
P. falciparum Dd2^F145I = tested on: P. falciparum Dd2^F145I; set-up: key to Phenotype, Dd2^F145I: S: sensitive; R: resistant; conditions: cited from earlier work
P. falciparum Dd2^Dd2 = tested on: P. falciparum Dd2^Dd2; set-up: key to Phenotype, Dd2^Dd2: S: sensitive; R: resistant; conditions: cited from earlier work
P. falciparum 7G8^7G8 = tested on: P. falciparum 7G8^7G8; set-up: key to Phenotype, 7G8^7G8: S: sensitive; R: resistant; conditions: cited from earlier work
P. falciparum Dd2^T93S = tested on: P. falciparum Dd2^T93S; set-up: key to Phenotype, Dd2^T93S: S: sensitive; R: resistant; conditions: cited from earlier work
P. falciparum NF10^YF = tested on: P. falciparum NF10^YF; set-up: method as in ref 1 Veiga et al. 2016; conditions: means ± SEM, N 6; ref 1 Veiga et al. 2016; read-out: IC50 NF10YF; cited from earlier work
PfCRT 7G8 isoform = experiment: [3H]CQ uptake in PfCRT-containing proteoliposomes; type: biochemical, Plasmodium falciparum; conditions: 1 μM; PfCRT 7G8, 7G8^F145I and 7G8^C350R
Description: Purified PfCRT variants were reconstituted in preformed liposomes made of E. coli total lipids:cholesteryl hemisuccinate 97:3 (w/w) at a protein-to-lipid ratio of 1:150 (w/w). The lumen of the proteoliposomes was composed of 100 mM KPi, pH 7.5, and 2 mM β-mercaptoethanol. Uptake of [^3H]CQ (1 Ci/mmol) or [^3H]PPQ (1 Ci/mmol) was performed by diluting PfCRT-containing proteoliposomes (30 ng of PfCRTper reaction) in an uptake buffer containing 100 mM Tris/MES, pH 5.5, in the presence or absence of 1 μM of the test compounds. In addition, 1 μM valinomycin was added to the reaction to generate a K^+ diffusion potential-driven membrane potential (ΔΨ). […] Filters were dried and incubated in a scintillation cocktail, and the radioactivity captured on the filters was counted in a Hidex SL300 scintillation counter. The efficiency of detection was calculated with a standard curve of known concentrations of each radiolabeled compound, and this was used to transform decays per minute (dpm) into pmol. The nonspecific interaction of each compound with nitrocellulose filters was determined by measuring mock uptake in the absence of liposomes or proteoliposomes. These values (determined for each experiment) were used to calculate background uptake in liposomes or proteoliposomes. […]

[2] = tested on: P. berghei PbGFP-Luccon liver stage; experiment: In vitro inhibition of liver stage infection of Huh-7 cells, bioluminescence; type: cell-based, Plasmodium berghei; conditions: 10 nM, positive control
Description: In vitro inhibition of Plasmodium liver stage infection was assessed using bioluminescence data from Huh-7 cells infected with a firefly-luciferase-expressing P. berghei line, PbGFP-Luccon, in the presence of various compound concentrations. […] One day before drug treatment and infection, 10^4 Huh-7 cells/well were seeded in 96-well plates. The medium was then replaced by an infection medium (culture medium supplemented with 50 μg/mL gentamycin and 0.8 μg/mL amphotericin B) containing desired concentrations of test compounds. Fresh sporozoites recovered from salivary glands of infected female Anopheles stephensi mosquitoes were added to seeded Huh-7 cells at a 1:1 proportion, followed by centrifugation at 1700g for 5 minutes and incubation for 46 hours at 37°C under 5% CO2. Compound toxicity against Huh-7 cells was assessed by measuring […] using the Alamar Blue assay (Invitrogen). IC50 values were calculated using nonlinear regression analysis (GraphPad Prism version 9).

[3] = Dd2M343L, mean ± SEM, ref 1 (Ross et al., 2018)
[4] = Dd2I218F, mean ± SEM, ref 2 (Dhingra et al., 2019)
[5] = Dd2G353V, mean ± SEM, ref 1 (Ross et al., 2018)
[6] = Dd2F145I, mean ± SEM, ref 1 (Ross et al., 2018)
[7] = Dd2Dd2, mean ± SEM, ref 1 (Ross et al., 2018)
[8] = Dd2T93S, mean ± SEM, ref 2 (Dhingra et al., 2019)

With CNC(=O)c1ccc(-c2cnc3cnc(C(=O)N(C)c4ccc(Cl)cc4)cn23)cc1 [KDU691] the “recrudescence of barcoded pool after” value [1] was 9 days and 7 days.

In the case of Clc1ccc2c(N3CCN(CCCN4CCN(c5ccnc6cc(Cl)ccc56)CC4)CC3)ccnc2c1 [PPQ, piperaquine], the IC50 (P. falciparum NF10^NF) is listed as 35.4 ± 2.1 nM, the “Phenotype, Dd2^H97Y” value (P. falciparum Dd2^H97Y) is listed as “R” and the IC50 (P. falciparum 7G8^C350R; 7G8C350R, mean ± SEM, ref 3 (Kim et al., 2019)) is listed as 36.5 ± 2 nM. The “Phenotype, 7G8^C350R” value (P. falciparum 7G8^C350R; ref [19],[20],[51]) was “R”, the “Phenotype, Dd2^3D7” value (P. falciparum Dd2^3D7) was “S” and the IC50 (P. falciparum Dd2^M343L; [3]) was 37.6 ± 4.8 nM. The IC90 (P. falciparum Dd2^M343L; [3]) was 93.1 ± 9.7 nM, the “Phenotype, Dd2^M343L” value (P. falciparum Dd2^M343L; ref [19],[20],[51]) was “R” and the IC50 (P. falciparum 7G8^F145I; 7G8F145I, mean ± SEM, ref 3 (Kim et al., 2019)) was 28.7 ± 1 nM. The “Phenotype, 7G8^F145I” value (P. falciparum 7G8^F145I; ref [19],[20],[51]) was “R”, the IC50 (P. falciparum Dd2^I218F; [4]) was 42 ± 20.8 nM and the IC90 (P. falciparum Dd2^I218F; [4]) was 8600 ± 1660 nM. The “Phenotype, Dd2^I218F” value (P. falciparum Dd2^I218F; ref [19],[20],[51]) was “R”, the IC50 (P. falciparum Dd2^G353V; [5]) was 31.8 ± 7.4 nM and the IC90 (P. falciparum Dd2^G353V; [5]) was 3740 ± 1980 nM. For the same compound, the “Phenotype, Dd2^G353V” value (P. falciparum Dd2^G353V; ref [19],[20],[51]) was “R”, the IC50 (P. falciparum Dd2^F145I; [6]) was 65.3 ± 3.1 nM and the IC90 (P. falciparum Dd2^F145I; [6]) was 5770 ± 666 nM. For the same compound, the “Phenotype, Dd2^F145I” value (P. falciparum Dd2^F145I; a: sensitized to CQ compared to the parental line but not fully sensitive, ref [19],[20],[51]) was “R”, the IC50 (P. falciparum Dd2^Dd2; [7]) was 27.6 ± 3.1 nM and the IC90 (P. falciparum Dd2^Dd2; [7]) was 50.2 ± 4.2 nM. The “Phenotype, Dd2^Dd2” value (P. falciparum Dd2^Dd2; ref [19],[20],[51]) was “S”, the IC50 (P. falciparum 7G8^7G8; 7G87G8, mean ± SEM, ref 3 (Kim et al., 2019)) was 21.4 ± 1 nM and the “Phenotype, 7G8^7G8” value (P. falciparum 7G8^7G8; ref [19],[20],[51]) was “S”. For the same compound, the IC50 (P. falciparum Dd2^T93S; [8]) was 31.9 ± 5.6 nM, the IC90 (P. falciparum Dd2^T93S; [8]) was 6880 ± 3420 nM and the “Phenotype, Dd2^T93S” value (P. falciparum Dd2^T93S; ref [19],[20],[51]) was “R”. For the same compound, the IC50 (P. falciparum NF10^YF) was 41.8 ± 3.4 nM.

With O=C1C(O)=C([C@H]2CC[C@H](c3ccc(Cl)cc3)CC2)C(=O)c2ccccc21 [atovaquone] the “competitive inhibition of [3H]CQ or [3H]PPQ transport” value (PfCRT 7G8 isoform) was “No competitive inhibition” and the “effect on hepatic infection” value [2] was “almost completely ablated infection”.

For CCc1nc(N)nc(N)c1-c1ccc(Cl)cc1 [pyrimethamine], the “competitive inhibition of [3H]CQ or [3H]PPQ transport” value (PfCRT 7G8 isoform) was “No competitive inhibition”.

Reference: publication PMC11521309, “A novel 4-aminoquinoline chemotype with multistage antimalarial activity and lack of cross-resistance with PfCRT and PfMDR1 mutants” (PLOS Pathogens, 2024)
